{
  "source": "paper PMC9837035",
  "about": "(Nature Communications, 2023)",
  "key": {"[1]": {"system": "rat myoblast cell line H9c2", "assay": "Cell viability assay (WST-8), H9c2", "assay_type": "cell-based", "details": "control (0 μM) = 100", "method": "(§1) A WST-8 (2-(2-methoxy-4-nitrophenyl)-3-(4-nitrophenyl)-5-(2,4-disulfophenyl)-2H-tetrazolium) assay using a Cell Counting Kit-8 (DOJINDO) was performed to measure cell viability using an EnSpire microplate reader (PerkinElmer)."}, "[2]": {"assay": "Cell viability assay (WST-8), H9c2", "assay_type": "cell-based, rat", "details": "rat, H9c2 myoblast cells, control (0 μM) = 100", "method": "as §1"}, "[3]": {"system": "β- and γ-globin genes in HUDEP-2 cells", "assay": "RT-qPCR of β- and γ-globin in HUDEP-2 cells", "assay_type": "cell-based, human", "details": "for β-globin expression in HUDEP-2 cells / γ-globin expression in HUDEP-2 cells: relative to DMSO = 1, replicate values", "method": "Total cellular RNA was prepared using the Tissue Total RNA Mini Kit (FAVORGEN), and cDNA was synthesized using ReverTra Ace Master Mix (TOYOBO). Expression of target genes was analyzed using THUNDERBIRD SYBR qPCR Mix (TOYOBO) on a CFX Connect Real Time System (Bio-Rad). The qPCR data were acquired on CFX Maestro (Bio-Rad). Primers are listed in Supplementary Table 10. GAPDH was used as a reference. Primers were purchased from INTEGRATED DNA TECHNOLOGIES or FASMAC."}, "[4]": {"system": "BGLT3 RNA in HUDEP-2 cells", "assay": "RT-qPCR of BGLT3 in HUDEP-2 cells", "assay_type": "cell-based, human", "details": "for BGLT3 expression in HUDEP-2 cells: relative to DMSO = 1, replicate values", "in_short": "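Total RNA reverse-transcribed to cDNA, then target transcripts quantified by SYBR Green real-time qPCR. Expression normalized to GAPDH as reference gene.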"}, "[5]": {"system": "HUDEP-2 cells", "assay": "Cell viability assay (WST-8), HUDEP-2", "assay_type": "cell-based, human", "details": "for cell viability in HUDEP-2 cells: control (0 μM) = 100", "method": "as §1"}, "[6]": {"assay": "Cell viability assay (WST-8), HUDEP-2", "assay_type": "cell-based, human", "details": "human, HUDEP-2 cells, control (0 μM) = 100", "method": "as §1"}, "[7]": {"system": "H3K9me2 in HUDEP-2 cells", "assay": "Western blotting of H3K9me2 in HUDEP-2 cells", "assay_type": "cell-based, human", "details": "HUDEP-2, 4 days", "method": "Preparation of cell lysates and western blotting were performed as described previously. Protein from cells lysates in lysis buffer (50 mM Tris-HCl (pH 7.5), 150 mM NaCl, 5 mM EDTA, 0.1% NP-40, 1 mM dithiothreitol) were separated by sodium dodecyl sulfate–polyacrylamide gel electrophoresis (SDS-PAGE) and transferred to a polyvinylidene difluoride (PVDF) membrane (Millipore) by electroblotting. The membranes incubated with primary antibodies overnight at 4 °C and secondary antibodies for 1 h at room temperature. The immune complexes were detected with the Immobilon Western Chemiluminescent HRP Substrate (Millipore). Luminescence was analyzed on a FUSION SOLO S (Vilber). Western blot bands were visualized using Evolution Capt software (M&S Instruments Inc.). Primary antibodies used were anti-G9a (1:1000, CST, #3306), anti–α-tubulin (1:5000, Abcam, ab18251), anti-H3K9me2 (1:3000, Abcam, ab1220), anti-H3 (1:5000, Abcam, ab1791), anti-H3K27me3 (1:3000, Sigma, 07-449), anti-GLP (1:1000, CST, #35005), anti-FLAG (100 ng/ml, Fujifilm, 01422383), anti-His (1:5000, MBL, PM032), anti-BCL11A (1:1000, abcam, ab19487), anti-ZBTB7A (1:1000, CST, #50565), anti-CHD3 (1:1000, Novus Biologicals, NB100-60412), and anti-CHD4 (1:1000, abcam, ab240640). Uncropped scans of all of the blots are available in Source Data file."}, "[8]": {"system": "mice", "assay": "Mouse acute toxicity assay, survival", "assay_type": "in vivo", "details": "intravenous, 2-week observation", "method": "All animal studies were approved by the Institutional Committee for Animal Experiments of the Institute of Microbial Chemistry, and were performed in accordance with relevant guidelines and regulations to minimize animal suffering. Four-week-old female ICR mice were purchased from Charles River Breeding Laboratories (Yokohama, Japan) and maintained in a specific pathogen-free barrier facility. […] Samples were dissolved in saline containing 10% DMSO and 1% Tween 80 and injected intravenously into mice."}},
  "note": "Values joined by “and” are separate entries in the source; they are usually repeats but may differ in a detail not shown here. Equal entries are not always repeated.",
  "data": [
    {"smiles": "COc1cc2c(NC3CCN(C(C)C)CC3)nc(C3CCCCC3)nc2cc1OCCCN1CCCC1", "note": "[UNC0638]", "values": [
      {"measurement": "cell viability in H9c2 cells", "setting": "[1]; 0.039 μM", "result": "83.333 and 114.948 and 83.569"},
      {"measurement": "cell viability in H9c2 cells", "setting": "[1]; 0.156 μM", "result": "95.490 and 88.952"},
      {"measurement": "cell viability in H9c2 cells", "setting": "[1]; 0.625 μM", "result": "87.887 and 83.853"},
      {"measurement": "viability at 0.156 μM", "setting": "[2]; 0.156 μM", "result": 90.4, "unit": "%"},
      {"measurement": "viability at 0.625 μM", "setting": "[2]; 0.625 μM", "result": 92.4, "unit": "%"},
      {"measurement": "β-globin expression in HUDEP-2 cells", "setting": "[3]; 0.01 μM", "result": "1.0792 and 0.9641 and 1.119"},
      {"measurement": "γ-globin expression in HUDEP-2 cells", "setting": "[3]; 0.01 μM", "result": "2.161 and 1.8663 and 1.942"},
      {"measurement": "β-globin expression in HUDEP-2 cells", "setting": "[3]; 0.03 μM", "result": "0.8727 and 0.8955 and 0.9796"},
      {"measurement": "γ-globin expression in HUDEP-2 cells", "setting": "[3]; 0.03 μM", "result": "2.931 and 2.632 and 2.938"},
      {"measurement": "β-globin expression in HUDEP-2 cells", "setting": "[3]; 0.1 μM", "result": "0.7919 and 0.6648 and 0.9576"},
      {"measurement": "γ-globin expression in HUDEP-2 cells", "setting": "[3]; 0.1 μM", "result": "3.187 and 2.85 and 3.299"},
      {"measurement": "β-globin expression in HUDEP-2 cells", "setting": "[3]; 0.3 μM", "result": "0.6454 and 0.4522 and 0.612"},
      {"measurement": "γ-globin expression in HUDEP-2 cells", "setting": "[3]; 0.3 μM", "result": "4.136 and 2.987 and 3.803"},
      {"measurement": "γ-globin mRNA level", "setting": "[3]; HUDEP-2", "result": "induced the expression of both BGLT3 and γ-globin"},
      {"measurement": "BGLT3 expression in HUDEP-2 cells", "setting": "[4]; 0.01 μM", "result": "1.173 and 1.9605 and 1.436"},
      {"measurement": "BGLT3 expression in HUDEP-2 cells", "setting": "[4]; 0.03 μM", "result": "1.045 and 1.983 and 1.934"},
      {"measurement": "BGLT3 expression in HUDEP-2 cells", "setting": "[4]; 0.1 μM", "result": "1.162 and 3.201 and 2.863"},
      {"measurement": "BGLT3 expression in HUDEP-2 cells", "setting": "[4]; 0.3 μM", "result": "3.578 and 5.267 and 5.078"},
      {"measurement": "BGLT3 expression", "setting": "[4]; HUDEP-2", "result": "induced the expression of both BGLT3 and γ-globin"},
      {"measurement": "cell viability in HUDEP-2 cells", "setting": "[5]; 0.00457247 μM", "result": "93.1765 and 99.8296"},
      {"measurement": "cell viability in HUDEP-2 cells", "setting": "[5]; 0.0137174 μM", "result": "92.549 and 98.1261"},
      {"measurement": "cell viability in HUDEP-2 cells", "setting": "[5]; 0.0411523 μM", "result": "91.9216 and 96.0818"},
      {"measurement": "cell viability in HUDEP-2 cells", "setting": "[5]; 0.123457 μM", "result": "90.9804 and 93.0153"},
      {"measurement": "cell viability in HUDEP-2 cells", "setting": "[5]; 0.37037 μM", "result": "82.1961 and 79.7274"},
      {"measurement": "cell viability in HUDEP-2 cells", "setting": "[5]; 1.11111 μM", "result": "35.1373 and 35.4344"},
      {"measurement": "cell viability in HUDEP-2 cells", "setting": "[5]; 10 μM", "result": "4.078 and 3.407"},
      {"measurement": "cytotoxic effect on viability", "setting": "[5]; HUDEP-2, 3 days", "result": "severe cell toxicity"},
      {"measurement": "viability at 0.00457247 μM", "setting": "[6]; 0.00457247 μM", "result": 97.7, "unit": "%"},
      {"measurement": "viability at 0.0137174 μM", "setting": "[6]; 0.0137174 μM", "result": 96.8, "unit": "%"},
      {"measurement": "viability at 0.0411523 μM", "setting": "[6]; 0.0411523 μM", "result": 103, "unit": "%"},
      {"measurement": "viability at 0.123457 μM", "setting": "[6]; 0.123457 μM", "result": 98.7, "unit": "%"},
      {"measurement": "viability at 0.37037 μM", "setting": "[6]; 0.37037 μM", "result": 83.3, "unit": "%"},
      {"measurement": "viability at 1.11111 μM", "setting": "[6]; 1.11111 μM", "result": 36, "unit": "%"},
      {"measurement": "viability at 10 μM", "setting": "[6]; 10 μM", "result": 2.19, "unit": "%"},
      {"measurement": "cellular H3K9me2 levels", "setting": "[7]", "result": "reduction of H3K9me2 levels"},
      {"measurement": "Number of alive mice", "setting": "[8]; 1.5625 mg/kg", "result": "3/3"},
      {"measurement": "Number of alive mice", "setting": "[8]; 3.125 mg/kg", "result": "3/3"},
      {"measurement": "Number of alive mice", "setting": "[8]; 6.25 mg/kg", "result": "0/3"},
      {"measurement": "Number of alive mice", "setting": "[8]; 12.5 mg/kg", "result": "0/3"},
      {"measurement": "Number of alive mice", "setting": "[8]; 25 mg/kg", "result": "0/3"}
    ]}
  ]
}
